Data taken from PMC7316778 (Nature Communications, 2020).
Where “and” joins values, the source holds several entries; their conditions need not be identical. Identical values can stand only once. Like-named read-outs stand apart in the source and are kept apart here.

Legend:
[1] = target: ~40 kDa protein (Homo sapiens, UniProt P28482); assay: Gel-based target engagement in HL-60 neutrophils; conditions: HL-60, read-out: Inhibition of off-target labeling
Description: Data represent means ± SEM.
The term in situ is used to designate experiments in which live cell cultures are treated with inhibitor, whereas the term in vitro refers to experiments in which the inhibitor is incubated with cell lysates. Compounds were diluted in growth medium from a 1000x concentrated stock solution in DMSO. […] After 48 h, cells were treated with compound for 1 h. Cells were collected by suspension in PBS and centrifuged (1000g, 5 min, rt). Pellets were flash-frozen in liquid nitrogen and stored at −80 °C until use. For in situ treatment post-differentiation, HL-60 cells were differentiated as described above and incubated with compound for 1 h unless specified otherwise. Cells were collected by suspension for non-adherent cells and trypsinization for adherent cells. After collection, cells were centrifuged (200g, 5 min, rt) and washed in equal volume of PBS (1000g, 5 min, rt). Cell pellets were flash-frozen in liquid nitrogen and stored at −80 °C until use.

[2] = target: ICK (Homo sapiens, UniProt Q9UPZ9); assay: SelectScreen kinase assay
Sequence of ICK (Q9UPZ9 whole entry): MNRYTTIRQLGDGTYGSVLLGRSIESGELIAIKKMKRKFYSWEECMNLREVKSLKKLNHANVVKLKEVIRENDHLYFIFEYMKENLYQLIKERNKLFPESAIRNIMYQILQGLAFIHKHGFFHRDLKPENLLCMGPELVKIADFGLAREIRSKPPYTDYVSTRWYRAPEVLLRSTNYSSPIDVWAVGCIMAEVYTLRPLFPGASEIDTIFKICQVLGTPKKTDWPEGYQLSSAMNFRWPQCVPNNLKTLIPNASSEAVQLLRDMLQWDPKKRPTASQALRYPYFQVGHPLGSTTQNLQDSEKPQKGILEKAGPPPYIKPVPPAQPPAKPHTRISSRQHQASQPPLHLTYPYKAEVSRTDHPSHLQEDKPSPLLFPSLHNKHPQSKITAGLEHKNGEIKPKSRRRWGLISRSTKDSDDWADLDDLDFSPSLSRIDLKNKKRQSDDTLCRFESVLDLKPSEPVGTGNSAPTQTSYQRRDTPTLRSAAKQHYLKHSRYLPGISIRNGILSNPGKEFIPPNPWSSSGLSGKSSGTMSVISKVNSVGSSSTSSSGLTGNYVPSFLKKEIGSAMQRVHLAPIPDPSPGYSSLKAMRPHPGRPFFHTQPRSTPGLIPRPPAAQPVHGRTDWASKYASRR
Description: (§1) Selectivity profiling assays were performed by the Invitrogen SelectScreen™ Services. […] The concentration of ATP was selected to be equal to the KM, unless indicated otherwise.

[3] = target: WEE1 (Homo sapiens, UniProt P30291); assay: SelectScreen kinase assay
Description: as §1

[4] = target: ERN1 (Homo sapiens, UniProt O75460); assay: SelectScreen kinase assay; conditions: for Inhibition at 1 µM (%): ERN1, LanthaScreen Binding
Sequence of ERN1 (O75460 19-977): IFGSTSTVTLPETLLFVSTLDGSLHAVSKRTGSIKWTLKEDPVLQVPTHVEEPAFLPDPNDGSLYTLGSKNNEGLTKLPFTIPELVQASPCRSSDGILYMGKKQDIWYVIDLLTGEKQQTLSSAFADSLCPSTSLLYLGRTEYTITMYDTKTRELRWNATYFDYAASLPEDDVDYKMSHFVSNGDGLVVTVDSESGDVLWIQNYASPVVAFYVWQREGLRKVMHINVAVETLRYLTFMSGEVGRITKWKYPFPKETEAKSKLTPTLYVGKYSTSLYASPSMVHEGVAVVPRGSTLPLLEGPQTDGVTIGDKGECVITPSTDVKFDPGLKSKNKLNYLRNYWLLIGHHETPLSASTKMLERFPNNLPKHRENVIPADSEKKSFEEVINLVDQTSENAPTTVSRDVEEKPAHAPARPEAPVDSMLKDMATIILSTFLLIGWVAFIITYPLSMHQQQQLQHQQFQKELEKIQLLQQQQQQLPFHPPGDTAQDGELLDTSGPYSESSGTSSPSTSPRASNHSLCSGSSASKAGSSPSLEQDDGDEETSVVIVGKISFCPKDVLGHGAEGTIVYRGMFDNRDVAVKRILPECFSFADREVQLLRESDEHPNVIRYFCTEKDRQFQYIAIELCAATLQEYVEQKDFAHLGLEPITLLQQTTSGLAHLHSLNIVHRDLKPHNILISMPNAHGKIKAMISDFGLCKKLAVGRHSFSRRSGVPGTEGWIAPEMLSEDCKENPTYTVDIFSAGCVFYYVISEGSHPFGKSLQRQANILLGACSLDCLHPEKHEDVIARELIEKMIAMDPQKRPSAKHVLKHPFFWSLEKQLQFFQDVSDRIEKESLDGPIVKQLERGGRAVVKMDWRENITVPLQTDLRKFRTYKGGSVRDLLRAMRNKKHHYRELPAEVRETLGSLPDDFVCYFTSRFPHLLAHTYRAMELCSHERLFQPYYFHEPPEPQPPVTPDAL
Description: as §1

[5] = target: MAPK14 (p38 alpha) (Homo sapiens, UniProt Q16539); assay: SelectScreen kinase assay
Sequence of MAPK14 (p38 alpha) (Q16539 whole entry): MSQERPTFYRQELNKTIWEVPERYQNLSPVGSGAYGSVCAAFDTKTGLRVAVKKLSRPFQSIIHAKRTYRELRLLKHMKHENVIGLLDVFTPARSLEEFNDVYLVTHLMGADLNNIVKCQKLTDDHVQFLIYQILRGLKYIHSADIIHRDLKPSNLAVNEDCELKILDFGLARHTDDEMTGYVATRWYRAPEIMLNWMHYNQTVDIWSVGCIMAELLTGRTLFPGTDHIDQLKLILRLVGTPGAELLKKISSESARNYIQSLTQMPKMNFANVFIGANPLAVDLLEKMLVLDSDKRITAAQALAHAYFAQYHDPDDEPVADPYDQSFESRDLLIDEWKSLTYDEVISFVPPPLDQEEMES
Description: as §1

[6] = target: T1, TTK (Homo sapiens, UniProt P33981); assay: SelectScreen kinase assay
T1 sequence (P33981 1-857): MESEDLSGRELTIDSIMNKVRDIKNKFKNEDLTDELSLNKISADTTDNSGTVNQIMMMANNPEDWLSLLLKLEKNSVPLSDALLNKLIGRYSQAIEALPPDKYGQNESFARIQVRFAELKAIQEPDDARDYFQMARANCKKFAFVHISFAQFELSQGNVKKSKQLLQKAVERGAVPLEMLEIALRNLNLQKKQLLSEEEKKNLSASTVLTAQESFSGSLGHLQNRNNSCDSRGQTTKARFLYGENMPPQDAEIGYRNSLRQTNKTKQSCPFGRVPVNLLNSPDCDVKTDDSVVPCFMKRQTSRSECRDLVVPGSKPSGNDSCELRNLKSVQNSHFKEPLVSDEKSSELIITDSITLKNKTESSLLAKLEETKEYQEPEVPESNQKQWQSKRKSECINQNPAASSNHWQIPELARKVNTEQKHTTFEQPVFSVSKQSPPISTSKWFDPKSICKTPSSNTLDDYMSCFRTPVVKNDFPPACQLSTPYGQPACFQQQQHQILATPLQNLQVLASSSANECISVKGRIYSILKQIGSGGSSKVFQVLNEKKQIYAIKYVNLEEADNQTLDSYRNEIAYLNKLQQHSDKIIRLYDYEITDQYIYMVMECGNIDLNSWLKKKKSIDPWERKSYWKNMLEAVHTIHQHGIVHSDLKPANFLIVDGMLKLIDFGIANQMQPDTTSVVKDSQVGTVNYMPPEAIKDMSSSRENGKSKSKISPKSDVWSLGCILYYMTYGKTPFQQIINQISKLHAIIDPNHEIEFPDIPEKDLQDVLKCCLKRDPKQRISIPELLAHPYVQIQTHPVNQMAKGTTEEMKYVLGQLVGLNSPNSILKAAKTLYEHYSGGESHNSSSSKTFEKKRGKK
Description: as §1

[7] = target: CDK17/cyclin Y (Homo sapiens, UniProt Q00537); assay: SelectScreen kinase assay
Description: as §1

[8] = target: PIK3C2B (PI3K-C2 beta) (Homo sapiens, UniProt O00750); assay: SelectScreen kinase assay
Description: as §1

[9] = target: T2, endogenous FES^S700C in HL-60 cells (Homo sapiens, UniProt P07332, S700C); assay: Gel-based target engagement during neutrophil differentiation; assay type: cell-based; conditions: 100 nM; Supplementary Figure 12b; individual replicates; listed as WEL028
T2 construct: endogenous in cells; host or cells: HL-60 FES^S700C clone, differentiated to macrophages or neutrophils
T2 sequence (P07332 whole entry S700C): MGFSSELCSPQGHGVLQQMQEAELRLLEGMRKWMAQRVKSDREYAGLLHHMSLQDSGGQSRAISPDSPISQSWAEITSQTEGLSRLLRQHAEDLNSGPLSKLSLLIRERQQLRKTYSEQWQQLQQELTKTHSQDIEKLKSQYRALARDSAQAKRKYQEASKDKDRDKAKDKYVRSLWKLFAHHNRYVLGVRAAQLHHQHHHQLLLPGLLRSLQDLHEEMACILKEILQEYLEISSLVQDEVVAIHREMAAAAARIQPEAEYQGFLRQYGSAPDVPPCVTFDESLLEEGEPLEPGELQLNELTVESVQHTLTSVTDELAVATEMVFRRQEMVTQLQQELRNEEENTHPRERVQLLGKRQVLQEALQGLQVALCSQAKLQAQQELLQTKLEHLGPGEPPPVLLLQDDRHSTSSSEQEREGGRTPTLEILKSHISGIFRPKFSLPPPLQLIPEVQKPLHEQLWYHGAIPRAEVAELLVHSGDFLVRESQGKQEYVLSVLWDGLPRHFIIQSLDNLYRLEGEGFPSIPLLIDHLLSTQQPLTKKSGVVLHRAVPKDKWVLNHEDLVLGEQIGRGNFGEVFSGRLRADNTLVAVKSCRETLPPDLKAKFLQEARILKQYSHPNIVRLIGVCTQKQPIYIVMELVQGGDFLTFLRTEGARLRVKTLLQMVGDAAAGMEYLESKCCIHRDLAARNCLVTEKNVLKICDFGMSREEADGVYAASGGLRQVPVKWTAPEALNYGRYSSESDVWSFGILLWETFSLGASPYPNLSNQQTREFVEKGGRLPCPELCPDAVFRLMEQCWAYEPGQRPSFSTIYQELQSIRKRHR

[10] = target: FRAP1 (mTOR) (Homo sapiens, UniProt P42345); assay: SelectScreen kinase assay
Description: as §1

[11] = target: NEK1 (Homo sapiens, UniProt Q96PY6); assay: SelectScreen kinase assay
Description: as §1

[12] = target: T3, PDK1 (Homo sapiens, UniProt O15530); assay: SelectScreen kinase assay
T3 sequence (O15530 1-556): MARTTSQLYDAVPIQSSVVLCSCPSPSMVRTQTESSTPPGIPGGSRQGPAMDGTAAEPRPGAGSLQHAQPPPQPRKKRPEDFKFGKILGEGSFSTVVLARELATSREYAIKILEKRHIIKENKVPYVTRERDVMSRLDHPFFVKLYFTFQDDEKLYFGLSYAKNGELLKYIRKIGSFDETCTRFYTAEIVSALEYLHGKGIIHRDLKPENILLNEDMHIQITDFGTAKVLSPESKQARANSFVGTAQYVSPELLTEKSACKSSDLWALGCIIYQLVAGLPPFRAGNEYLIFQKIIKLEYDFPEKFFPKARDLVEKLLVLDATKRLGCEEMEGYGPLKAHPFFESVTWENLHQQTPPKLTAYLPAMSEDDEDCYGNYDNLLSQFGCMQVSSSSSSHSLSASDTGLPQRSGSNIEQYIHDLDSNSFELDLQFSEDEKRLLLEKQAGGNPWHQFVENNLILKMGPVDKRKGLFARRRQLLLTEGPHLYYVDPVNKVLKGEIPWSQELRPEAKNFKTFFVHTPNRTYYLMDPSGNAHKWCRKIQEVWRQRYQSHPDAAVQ
Description: as §1

[13] = target: CSNK1G2 (CK1 gamma 2) (Homo sapiens, UniProt P78368); assay: SelectScreen kinase assay
Sequence of CSNK1G2 (CK1 gamma 2) (P78368 whole entry): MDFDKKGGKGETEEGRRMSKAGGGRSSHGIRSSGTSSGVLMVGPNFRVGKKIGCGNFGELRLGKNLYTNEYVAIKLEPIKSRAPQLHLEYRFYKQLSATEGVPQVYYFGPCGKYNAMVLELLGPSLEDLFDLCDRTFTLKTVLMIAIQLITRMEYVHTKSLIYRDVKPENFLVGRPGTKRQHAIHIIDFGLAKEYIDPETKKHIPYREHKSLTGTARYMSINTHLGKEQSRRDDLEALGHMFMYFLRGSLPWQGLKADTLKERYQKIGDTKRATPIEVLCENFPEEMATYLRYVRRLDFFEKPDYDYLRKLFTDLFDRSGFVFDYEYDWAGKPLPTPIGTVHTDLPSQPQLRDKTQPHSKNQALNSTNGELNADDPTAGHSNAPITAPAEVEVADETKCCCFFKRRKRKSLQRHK
Description: as §1

[14] = target: HIPK2 (Homo sapiens, UniProt Q9H2X6); assay: SelectScreen kinase assay; conditions: for Inhibition at 1 µM (%): HIPK2, ZLYTE, ATP Km app
Description: as §1

[15] = target: HIPK1 (Myak) (Homo sapiens, UniProt Q86Z02); assay: SelectScreen kinase assay; conditions: for Inhibition at 1 µM (%): HIPK1 (Myak), ZLYTE, ATP Km app
Sequence of HIPK1 (Myak) (Q86Z02 whole entry): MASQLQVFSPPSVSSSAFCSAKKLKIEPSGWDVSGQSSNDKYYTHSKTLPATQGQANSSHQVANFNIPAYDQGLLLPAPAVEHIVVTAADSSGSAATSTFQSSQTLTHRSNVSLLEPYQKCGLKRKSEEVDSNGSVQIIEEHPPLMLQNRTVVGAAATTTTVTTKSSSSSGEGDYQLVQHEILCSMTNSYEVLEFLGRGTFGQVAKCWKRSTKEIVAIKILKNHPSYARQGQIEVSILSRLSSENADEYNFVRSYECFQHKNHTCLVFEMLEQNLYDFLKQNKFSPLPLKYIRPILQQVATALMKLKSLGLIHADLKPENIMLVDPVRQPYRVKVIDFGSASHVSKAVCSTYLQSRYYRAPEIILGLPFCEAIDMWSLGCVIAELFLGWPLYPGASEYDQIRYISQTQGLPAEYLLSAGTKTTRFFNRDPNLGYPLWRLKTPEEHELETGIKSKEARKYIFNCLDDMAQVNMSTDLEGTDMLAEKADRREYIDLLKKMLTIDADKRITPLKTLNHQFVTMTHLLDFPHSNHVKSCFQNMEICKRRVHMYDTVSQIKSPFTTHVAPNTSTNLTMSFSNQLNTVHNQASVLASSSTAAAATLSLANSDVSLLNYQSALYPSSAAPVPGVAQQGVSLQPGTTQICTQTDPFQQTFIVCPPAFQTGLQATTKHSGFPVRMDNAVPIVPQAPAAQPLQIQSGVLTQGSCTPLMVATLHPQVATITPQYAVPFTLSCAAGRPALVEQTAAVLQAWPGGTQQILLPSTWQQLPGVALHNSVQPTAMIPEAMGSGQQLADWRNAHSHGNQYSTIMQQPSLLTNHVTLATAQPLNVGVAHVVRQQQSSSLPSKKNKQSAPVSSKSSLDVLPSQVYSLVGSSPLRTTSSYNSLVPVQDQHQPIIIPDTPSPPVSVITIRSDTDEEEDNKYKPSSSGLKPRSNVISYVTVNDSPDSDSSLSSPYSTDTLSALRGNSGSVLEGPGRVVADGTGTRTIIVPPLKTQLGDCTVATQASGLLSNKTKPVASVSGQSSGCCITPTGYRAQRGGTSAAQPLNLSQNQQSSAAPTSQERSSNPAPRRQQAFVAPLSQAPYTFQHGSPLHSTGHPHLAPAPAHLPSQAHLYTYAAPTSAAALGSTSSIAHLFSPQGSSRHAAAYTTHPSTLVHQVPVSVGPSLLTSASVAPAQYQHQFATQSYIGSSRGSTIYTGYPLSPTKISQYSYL
Description: as §1

[16] = target: PIP5K1A (Homo sapiens, UniProt Q99755); assay: SelectScreen kinase assay
Sequence of PIP5K1A (Q99755 whole entry): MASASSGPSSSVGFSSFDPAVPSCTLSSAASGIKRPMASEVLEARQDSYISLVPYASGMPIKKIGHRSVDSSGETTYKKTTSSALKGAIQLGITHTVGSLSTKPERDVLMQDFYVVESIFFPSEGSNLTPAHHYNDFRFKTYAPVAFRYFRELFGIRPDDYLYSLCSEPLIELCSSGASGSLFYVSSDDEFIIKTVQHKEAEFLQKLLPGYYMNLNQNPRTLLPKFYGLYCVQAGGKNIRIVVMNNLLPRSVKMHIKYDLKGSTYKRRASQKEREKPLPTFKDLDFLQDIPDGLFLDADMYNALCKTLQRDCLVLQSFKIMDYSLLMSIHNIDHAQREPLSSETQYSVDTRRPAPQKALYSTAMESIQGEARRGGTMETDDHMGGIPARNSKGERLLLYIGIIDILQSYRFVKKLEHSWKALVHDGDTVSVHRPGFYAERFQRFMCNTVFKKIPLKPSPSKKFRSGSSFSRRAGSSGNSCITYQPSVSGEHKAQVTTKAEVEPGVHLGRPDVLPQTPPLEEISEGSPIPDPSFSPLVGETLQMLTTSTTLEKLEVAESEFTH
Description: as §1

[17] = 1 h, 1 μM WEL028, 1 h preincubation

**Q.** With C#CCOc1ccc(Nc2ncc(Cl)c(Nc3ccccc3NC(=O)C=C)n2)c(OC)c1 [Compound 6] as the compound, how does the inhibition at 0.1 µM [1] read?
**A.** ~10%

**Q.** What about the inhibition at 1 µM [2, 17] of the same compound?
**A.** 7%

**Q.** What about the inhibition at 1 µM ([2]; read-out: Inhibition at 1 µM (%), ICK, 1 µM, LanthaScreen Binding) of the same compound?
**A.** 8%

**Q.** And the “Inhibition at 1 µM (%)” value ([3]; 1 µM, LanthaScreen Binding)?
**A.** -14%

**Q.** What about the inhibition at 1 µM [3, 17] of the same compound?
**A.** -5%

**Q.** What about the inhibition at 1 µM [4, 17] of the same compound?
**A.** 8%

**Q.** What about the “Inhibition at 1 µM (%)” value [4] of the same compound?
**A.** 13%

**Q.** What about the “Inhibition at 1 µM (%)” value ([4]; listed as WEL028, 1 µM) of the same compound?
**A.** 4%

**Q.** And the “Inhibition (%)” value ([5]; 1 μM WEL028, 1 h preincubation)?
**A.** 7%

**Q.** And the “Inhibition at 1 µM (%)” value ([5]; MAPK14 (p38 alpha) Direct, 1 µM, ZLYTE, ATP Km app, listed as WEL028, 1 µM)?
**A.** 4% and 10%

**Q.** And the IC50 [6]?
**A.** 0.631 µM

**Q.** What about the “Inhibition at 1 µM (%)” value ([6]; 1 µM, LanthaScreen Binding, listed as WEL028, 1 µM) of the same compound?
**A.** 76%

**Q.** What about the inhibition at 1 µM [6, 17] of the same compound?
**A.** 77%

**Q.** What about the Apparent fold selectivity ([6]; IC50 on that kinase divided by IC50 on FES^S700C) of the same compound?
**A.** 152 fold

**Q.** What about the inhibition at 1 µM ([6]; read-out: Inhibition at 1 µM (%), 1 µM, LanthaScreen Binding) of the same compound?
**A.** 77%

**Q.** And the inhibition at 1 µM [7, 17]?
**A.** 4%

**Q.** And the inhibition at 1 µM ([7]; read-out: Inhibition at 1 µM (%), CDK17/cyclin Y, 1 µM, ZLYTE, ATP Km app)?
**A.** 5%

**Q.** And the inhibition at 1 µM ([8]; 1 h)?
**A.** -1%

**Q.** And the inhibition at 1 µM ([8]; read-out: Inhibition at 1 µM (%))?
**A.** -1%

**Q.** What about the “Relative FES labeling (%)” value [9] of the same compound?
**A.** 10.1064% and 13.5252% and 6.003%

**Q.** What about the inhibition at 1 µM [10, 17] of the same compound?
**A.** 11%

**Q.** And the “Inhibition at 1 µM (%)” value ([10]; FRAP1 (mTOR), 1 µM, ZLYTE, ATP Km app)?
**A.** 19%

**Q.** What about the inhibition at 1 µM [11, 17] of the same compound?
**A.** 6%

**Q.** And the “Inhibition at 1 µM (%)” value ([11]; NEK1, 1 µM, ZLYTE, ATP Km app)?
**A.** 12%

**Q.** And the inhibition at 1 µM [12, 17]?
**A.** 36%

**Q.** What about the “Inhibition at 1 µM (%)” value ([12]; PDK1, 1 µM, ZLYTE, ATP 100, listed as WEL028, 1 µM) of the same compound?
**A.** 35%

**Q.** What about the inhibition at 1 µM ([12]; read-out: Inhibition at 1 µM (%), PDK1, 1 µM, ZLYTE, ATP 100) of the same compound?
**A.** 36%

**Q.** And the “Inhibition (%)” value ([13]; 1 μM WEL028, 1 h preincubation)?
**A.** 4%

**Q.** And the “Inhibition at 1 µM (%)” value ([13]; CSNK1G2 (CK1 gamma 2), 1 µM, ZLYTE, ATP Km app, listed as WEL028, 1 µM)?
**A.** 7% and 1%

**Q.** What about the inhibition at 1 µM [14, 17] of the same compound?
**A.** 1%

**Q.** What about the “Inhibition at 1 µM (%)” value [14] of the same compound?
**A.** 2%

**Q.** What about the “Inhibition at 1 µM (%)” value ([14]; listed as WEL028, 1 µM) of the same compound?
**A.** 0%

**Q.** And the inhibition at 1 µM [15, 17]?
**A.** -4%

**Q.** What about the “Inhibition at 1 µM (%)” value [15] of the same compound?
**A.** -2%

**Q.** What about the “Inhibition at 1 µM (%)” value ([15]; listed as WEL028, 1 µM) of the same compound?
**A.** -6%

**Q.** And the inhibition at 1 µM [16, 17]?
**A.** -3%

**Q.** What about the “Inhibition at 1 µM (%)” value ([16]; PIP5K1A, 1 µM, Adapta, ATP 10, listed as WEL028, 1 µM) of the same compound?
**A.** 1% and -7%
